According to patent publication US8759366B2, “Aminopyrimidines as SYK inhibitors” (Merck Sharp & Dohme Corp., priority 2009, dated 2014):

These molecules were tested against rhSYK (Homo sapiens (Human), UniProt P43405). Conditions: read-out: rhSYK activity.

Question: `Cc1cc(Nc2nccc(C(F)(F)F)n2)cc(-c2cnc(C3(O)C4CC5CC(C4)C(C(=O)O)C3C5)s2)c1` (centres unmarked) [Example 4B-43] was tested. Which IC50 did it give?
Answer: < 100 nM

Question: With `Cc1cc(Nc2nccc(C(F)(F)F)n2)cc(-c2cnc(C3(O)CC4(C(=O)O)CCC3(C)C4(C)C)s2)c1` (centres unmarked) [Example 4B-49] as the molecule, how does the IC50 read?
Answer: < 100 nM

Question: For `CC(=O)NC12CC3CC(C1)C(O)(c1ncc(-c4cc(C)cc(Nc5nccc(C(F)(F)F)n5)c4)s1)C(C3)C2` (centres unmarked) [Example 4B-51], which IC50 is on record?
Answer: < 100 nM

Question: With `Cc1cc(Nc2nccc(C(F)(F)F)n2)cc(-c2cnc(C3(O)C=CCCCC3)s2)c1` (centres unmarked) [Example 4B-55] as the molecule, how does the IC50 read?
Answer: < 100 nM

Question: With `CCOC(=O)C1CCC(O)(c2ncc(-c3cc(C)cc(Nc4nccc(C(F)(F)F)n4)c3)s2)C(C)C1C` (centres unmarked) [Example 4B-57] as the molecule, how does the IC50 read?
Answer: < 100 nM

Question: For `Cc1cc(Nc2nccc(C)n2)cc(-c2cnc(C3(C)OC(=O)CC3(C)C)s2)c1` (centres unmarked) [Example 4B-58], which IC50 is on record?
Answer: < 100 nM

Question: For `Cc1cc(Nc2nccc(C(F)(F)F)n2)cc(-c2cnc(C3CCC(=O)O3)s2)c1` (centres unmarked) [Example 4B-60], which IC50 is on record?
Answer: < 100 nM

Question: Which IC50 does the source give for `Cc1cc(Nc2nccc(C(F)(F)F)n2)cc(-c2cnc(C3(C)OC(=O)CC3(C)C)s2)c1` (centres unmarked) [Example 4B-61] here?
Answer: < 100 nM

Question: `OC1(c2ncc(-c3cccc(Nc4nccc(C(F)(F)F)n4)c3)s2)CCCCCC1` [Example 4C-1] was tested. Which IC50 did it give?
Answer: < 100 nM

Question: With `Cc1cc(Nc2nccc(C)n2)cc(-c2cnc(C3(O)CCC(CN)CC3)s2)c1` (centres unmarked) [Example 4C-2] as the molecule, how does the IC50 read?
Answer: < 100 nM

Question: `Cc1cc(Nc2nccc(C)n2)cc(-c2cnc(C3(O)CCC(CN)CC3)s2)c1` (centres unmarked) [Example 4C-3] was tested. Which IC50 did it give?
Answer: < 100 nM

Question: With `Cc1cc(Nc2nccc(C(F)(F)F)n2)cc(-c2cnc(C3(O)CCC(CCN)CC3)s2)c1` (centres unmarked) [Example 4C-5] as the molecule, how does the IC50 read?
Answer: < 100 nM

Question: `Cc1cc(Nc2nccc(C)n2)cc(-c2cnc(C3(O)CCC(CO)CC3)s2)c1` (centres unmarked) [Example 4C-9] was tested. Which IC50 did it give?
Answer: < 100 nM

Question: `Cc1cc(Nc2nccc(C)n2)cc(-c2cnc(C3(O)CCC(N)(C(=O)O)CC3)s2)c1` (centres unmarked) [Example 4C-10] was tested. Which IC50 did it give?
Answer: < 100 nM

Question: `COC(=O)C1CCC(O)(c2ncc(-c3cc(C)cc(Nc4nccc(C)n4)c3)s2)CC1C(C)C` (centres unmarked) [Example 4C-17] was tested. Which IC50 did it give?
Answer: < 100 nM

Question: `Cc1cc(Nc2nccc(C(F)(F)F)n2)cc(-c2cnc(C3(O)CCC(C4(N)CC4)CC3)s2)c1` (centres unmarked) [Example 4C-19] was tested. Which IC50 did it give?
Answer: < 100 nM

Question: Which IC50 does the source give for `Cc1cc(Nc2nccc(C(F)(F)F)n2)cc(-c2cnc(C3(O)CCC(C4(N)CC4)CC3)s2)c1` (centres unmarked) [Example 4C-20] here?
Answer: < 100 nM

Question: Which IC50 does the source give for `Cc1cc(Nc2nccc(C(F)(F)F)n2)cc(-c2cnc(C3(O)CCCC(C)(CC(=O)O)C3)s2)c1` (centres unmarked) [Example 4C-22] here?
Answer: < 100 nM

Question: How did the IC50 turn out when `Cc1cc(Nc2nccc(C(F)(F)F)n2)cc(-c2cnc(C3(O)CCCC(C)(CC(=O)O)C3)s2)c1` (centres unmarked) [Example 4C-23] was run?
Answer: < 100 nM

Question: `CCOC(=O)C1CCC(O)(c2ncc(-c3cc(C)cc(Nc4nccc(C)n4)c3)s2)CC1c1ccccc1C` (centres unmarked) [Example 4C-27] was tested. Which IC50 did it give?
Answer: 100 to 1000 nM

Question: For `CCOC(=O)C1CCC(O)(c2ncc(-c3cc(C)cc(Nc4nccc(C)n4)c3)s2)CC1c1ccc(F)cc1` (centres unmarked) [Example 4C-28], which IC50 is on record?
Answer: 100 to 1000 nM

Question: Which IC50 does the source give for `Cc1cc(Nc2nccc(C(F)(F)F)n2)cc(-c2cnc(C3(O)CCC(N(C)C)CC3)s2)c1` (centres unmarked) [Example 4C-33] here?
Answer: < 100 nM

Question: `OCCC(O)(CCO)c1ncc(-c2cccc(Nc3nccc(C(F)(F)F)n3)c2)s1` [Example 5, 3-[5-(3-{[4-(trifluoromethyl)pyrimidin-2-yl]amino}phenyl)-1,3-thiazol-2-yl]pentane-1,3,5-triol] was tested. Which IC50 did it give?
Answer: 100 to 1000 nM

Question: Which IC50 does the source give for `Cc1cc(Nc2nccc(C(F)(F)F)n2)cc(-c2cnc(C(O)C(F)(F)F)s2)c1` (centres unmarked) [Example 6, 2,2,2-trifluoro-1-[5-(3-methyl-5-{[4-(trifluoromethyl)pyrimidin-2-yl]amino}phenyl)-1,3-thiazol-2-yl]ethanol] here?
Answer: < 100 nM

Question: With `O=C(c1ncc(-c2cccc(Nc3nccc(C(F)(F)F)n3)c2)s1)C(F)(F)F` [Example 6-1] as the molecule, how does the IC50 read?
Answer: < 100 nM

Question: With `CC1(C)C(O)C(C)(C)C1(O)c1ncc(-c2cccc(Nc3nccc(C(F)(F)F)n3)c2)s1` (centres unmarked) [Example 6-10] as the molecule, how does the IC50 read?
Answer: 100 to 1000 nM
